In patent US10654834B2 (Venenum Biodesign, LLC, priority 2016, dated 2020):

Key:
mouse TGR5 receptor = target: T1, mouse TGR5 receptor (Mus musculus, UniProt Q80SS6); test: Mouse TGR5 HTRF cAMP production assay (HEK293-EBNA cells, Cisbio cAMP HiRange kit); assay type: cell-based; details: HEK293-EBNA cells overexpressing mouse TGR5, HTRF cAMP assay
T1 construct: host or cells: HEK293-EBNA (293 c18, ATCC CRL10852)
T1 sequence (Q80SS6 1-329): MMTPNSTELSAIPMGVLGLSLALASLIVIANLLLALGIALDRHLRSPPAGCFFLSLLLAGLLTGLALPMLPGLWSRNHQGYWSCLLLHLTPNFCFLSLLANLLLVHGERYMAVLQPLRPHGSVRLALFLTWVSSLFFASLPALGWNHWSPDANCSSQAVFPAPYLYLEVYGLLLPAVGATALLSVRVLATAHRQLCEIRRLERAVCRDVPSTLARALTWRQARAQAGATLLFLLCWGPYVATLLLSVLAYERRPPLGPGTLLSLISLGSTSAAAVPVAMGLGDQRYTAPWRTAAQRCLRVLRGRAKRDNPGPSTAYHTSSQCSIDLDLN
Experimental: Mouse TGR5 cAMP Production Assay
Compounds of the present invention were evaluated for their ability to induce cAMP production in HEK-EBNA cells overexpressing the mouse TGR5 receptor. Human embryonic kidney cells (HEK293-EBNA) stably expressing mouse TGR5 receptor were established using the following procedure. Specifically, a commercially obtained gene encoding mouse TGR5 (accession number BC116914) from Thermo Scientific (Waltham, Mass.) was cloned into an episomal expression vector. The resulting expression plasmid was then transfected into 293 c18 (ATCC® CRL10852™) cells, which express the Epstein-Barr virus nuclear antigen EBNA1 and can support the replication of episomal vectors. Selection for the plasmid was maintained with Hygromycin B. Cells were cultured and maintained in DMEM (Sigma; cat #6429) supplemented with 10% Fetal Bovine Serum, 1% penicillin/streptomycin, 2 mM L-alanine L-glutamine (GlutaMax), and 250 μg/mL Hygromycin.
We developed two cAMP production assays.
(ii) HTRF cAMP Production Assay
In this second cAMP production assay, the cAMP production was measured in 384-well low volume plates (Greiner; cat #784075) using the Cisbio™ cAMP HiRange HTRF Assay Kit (CisBio) according to the manufacturer's protocol.
Briefly, compounds were initially diluted in 100% DMSO (12-point serial dilution by half logs) in a 96-well plate and then were further diluted 1:50 in PBS containing 10 mM HEPES. 5 μL were transferred to the 384-well assay plate in duplicate. HEK293-EBNA cells stably overexpressing mouse TGR5 were harvested using non-enzymatic cell dissociation buffer (Sigma), spun down, then resuspended in serum-free DMEM with 500 μM IBMX at a density of 500,000 cells/mL. 5 μL of cell suspension was transferred to each well of the 384-well assay plate already containing compound. The plate was covered and incubated at room temperature for 1 hour. The d2-cAMP and anti-cAMP Ab-cryptate stock solutions were prepared as per kit instructions. Then 5 μL of each conjugate (d2 and cryptate) were added to each well of the assay plate. The plate was covered and incubated at room temperature for one (1) hour. The plate was read on an Envision™ plate reader (PerkinElmer).
(§1) In Table 52, EC50 values for both human and mouse cells were determined according to the TGR5 cAMP assays described above. […]

human TGR5 receptor = target: T2, human TGR5 receptor (Homo sapiens, UniProt Q8TDU6); test: Human TGR5 cAMP production assay (hTGR5-CHO cells, DiscoveRx cAMP XS+ kit); assay type: cell-based; details: luminescent cAMP assay, read-out: Human TGR5 Lum. cAMP Activity (EC50)
T2 construct: host or cells: CHO-K1 (hTGR5-CHO)
T2 sequence (Q8TDU6 1-330): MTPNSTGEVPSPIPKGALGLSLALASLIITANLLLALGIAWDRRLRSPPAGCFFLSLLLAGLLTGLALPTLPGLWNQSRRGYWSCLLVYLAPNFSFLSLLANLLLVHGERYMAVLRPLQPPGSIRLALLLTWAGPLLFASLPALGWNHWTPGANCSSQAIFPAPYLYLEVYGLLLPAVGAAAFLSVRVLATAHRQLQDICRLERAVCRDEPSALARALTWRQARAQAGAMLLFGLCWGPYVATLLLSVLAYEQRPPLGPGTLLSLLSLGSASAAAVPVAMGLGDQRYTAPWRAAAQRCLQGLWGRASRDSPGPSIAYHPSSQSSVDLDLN
Experimental: Human TGR5 cAMP Production Assay
Compounds of the present invention were evaluated for their ability to induce cAMP production using CHO-K1 cells overexpressing the human TGR5 receptor.
CHO-K1 cells stably expressing human TGR5 receptor (accession number NM_001077194.1) (hTGR5) (i.e., hTGR5-CHO cells) were purchased from DiscoveRx Corporation (Fremont, Calif.). hTGR5-CHO cells were grown in Ham's F-12 media supplemented with 10% Fetal Bovine Serum, 1% Penicillin-Streptomycin, 2 mM L-Alanine L-Glutamine (Glutamax), and 800 μg/mL Geneticin selection. The cAMP production assay was performed using DiscoveRx's cAMP XS+ kit (Catalog No. 90-0075XL) following the manufacturer's recommended protocol. Briefly, hTGR5-CHO cells were harvested using non-enzymatic cell dissociation buffer (Sigma-Aldrich, St. Louis, Mo.) and 1×10^6 cells were combined in Phosphate-Buffered Saline (PBS) to a final volume of 496 μL to which 4 μL of 125 mM IBMX (Sigma-Aldrich, St. Louis, Mo.) was added. 500 μL of cAMP antibody solution was added to the harvested cells and incubated at room temperature for 20 min.
Test compounds were serially diluted (half-log dilutions) in DMSO and then further diluted 1:50 in PBS, 10 mM HEPES buffer. 2 μL of serially diluted compound was added to a 384-well low volume plate (Greiner; cat #784075) and centrifuged briefly. 2 μl of the cell/cAMP antibody mixture was then added to each compound-containing well and allowed to incubate at room temperature for one hour. Following incubation, the XS+ kits' ED/Lysis/CL Substrate Working Solution was prepared following the manufacturer's recommended protocol and 4 μL was added to each well of the plate. The plate was then incubated for one hour at room temperature. Following incubation, 4 μL of Enzyme Acceptor reagent was added to the plate and allowed to incubate overnight at room temperature. Luminescent signal was then detected using the Viewlux instrument (Perkin-Elmer, Waltham, Mass.).
Human and Mouse TGR5 cAMP
as §1

## N#Cc1ccc(CCNC(=O)[C@@H]2CCCN2c2cc(-c3ccc(CCC(=O)NCCS(=O)(=O)O)cc3)nc(C(F)(F)F)n2)cc1 [Compound 189, (S)-2-(3-(4-(6-(2-((4-cyanophenethyl)carbamoyl)pyrrolidin-1-yl)-2-(trifluoromethyl)pyrimidin-4-yl)phenyl)propanamido)ethanesulfonic acid]
Mouse TGR5 receptor
  EC50: < 100 nM
Human TGR5 receptor
  EC50: < 100 nM

## N#Cc1ccc(CCNC(=O)[C@@H]2CCCN2c2cc(-c3cccc(CCC(=O)NCCS(=O)(=O)O)c3)nc(C(F)(F)F)n2)cc1 [Compound 190, (S)-2-(3-(3-(6-(2-((4-cyanophenethyl)-carbamoyl)pyrrolidin-1-yl)-2-(trifluoromethyl)pyrimidin-4-yl)phenyl)-propanamido)ethanesulfonic acid]
Mouse TGR5 receptor
  EC50: < 100 nM
Human TGR5 receptor
  EC50: 1000 to 30000 nM

## N#Cc1ccc(CCNC(=O)[C@@H]2CCCN2c2cc(-c3ccc(CNC(=O)NCCS(=O)(=O)O)cc3)nc(C(F)(F)F)n2)cc1 [Compound 191, (S)-2-(3-(4-(6-(2-((4-cyanophenethyl)carbamoyl)pyrrolidin-1-yl)-2-(trifluoromethyl)pyrimidin-4-yl)benzyl)ureido)ethanesulfonic acid]
Mouse TGR5 receptor
  EC50: < 100 nM
Human TGR5 receptor
  EC50: 100 to 999 nM

## N#Cc1ccc(CCNC(=O)[C@@H]2CCCN2c2cc(-c3ccc(CNC(=O)NCS(=O)(=O)O)cc3)nc(C(F)(F)F)n2)cc1 [Compound 192, (S)-(3-(4-(6-(2-((4-cyanophenethyl)carbamoyl)pyrrolidin-1-yl)-2-(trifluoromethyl)pyrimidin-4-yl)benzyl)ureido)methanesulfonic acid]
Mouse TGR5 receptor
  EC50: < 100 nM
Human TGR5 receptor
  EC50: 100 to 999 nM

## N#Cc1ccc(CCNC(=O)[C@@H]2CCCN2c2cc(-c3ccc(CNC(=O)NCCCS(=O)(=O)O)cc3)nc(C(F)(F)F)n2)cc1 [Compound 193, (S)-3-(3-(4-(6-(2-((4-cyanophenethyl)carbamoyl)pyrrolidin-1-yl)-2-(trifluoromethyl)pyrimidin-4-yl)benzyl)ureido)propane-1-sulfonic acid]
Mouse TGR5 receptor
  EC50: < 100 nM
Human TGR5 receptor
  EC50: 100 to 999 nM

## N#Cc1ccc(CCNC(=O)[C@@H]2CCCN2c2cc(-c3ccc(CCNC(=O)NCCS(=O)(=O)O)cc3)nc(C(F)(F)F)n2)cc1 [Compound 194, (S)-2-(3-(4-(6-(2-((4-cyanophenethyl)carbamoyl)pyrrolidin-1-yl)-2-(trifluoromethyl)pyrimidin-4-yl)phenethyl)ureido)ethanesulfonic acid]
Mouse TGR5 receptor
  EC50: < 100 nM
Human TGR5 receptor
  EC50: 100 to 999 nM

## N#Cc1ccc(CCNC(=O)[C@@H]2CCCN2c2cc(-c3ccc(CCNC(=O)NCCCS(=O)(=O)O)cc3)nc(C(F)(F)F)n2)cc1 [Compound 195, (S)-3-(3-(4-(6-(2-((4-cyanophenethyl)carbamoyl)pyrrolidin-1-yl)-2-(trifluoromethyl)pyrimidin-4-yl)phenethyl)ureido)propane-1-sulfonic acid]
Mouse TGR5 receptor
  EC50: < 100 nM
Human TGR5 receptor
  EC50: 100 to 999 nM

## CN(C(=O)NCCC(=O)O)c1ccc(-c2cc(N3CCC[C@H]3C(=O)NCCc3ccc(C#N)cc3)nc(C(F)(F)F)n2)cc1 [Compound 196, (S)-3-(3-(4-(6-(2-((4-cyanophenethyl)carbamoyl)pyrrolidin-1-yl)-2-(trifluoromethyl)pyrimidin-4-yl)phenyl)-3-methylureido)propanoic acid]
Mouse TGR5 receptor
  EC50: 100 to 999 nM
Human TGR5 receptor
  EC50: 1000 to 30000 nM

## N#Cc1ccc(CCNC(=O)[C@@H]2CCCN2c2cc(N3CCC(CCCC(=O)N[C@@H](CCCNC(=N)N)C(=O)O)CC3)cc(C(F)(F)F)n2)cc1 [Compound 200, (S)-2-(4-(1-(2-((S)-2-((4-cyanophenethyl)carbamoyl)pyrrolidin-1-yl)-6-(trifluoromethyl)pyridin-4-yl)piperidin-4-yl)butanamido)-5-guanidinopentanoic acid]
Mouse TGR5 receptor
  EC50: < 100 nM
Human TGR5 receptor
  EC50: < 100 nM

## N#Cc1ccc(CCNC(=O)[C@@H]2CCCN2c2cc(N3CCC(CCCNC(=O)NCS(=O)(=O)O)CC3)cc(C(F)(F)F)n2)cc1 [Compound 201, (S)-(3-(3-(1-(2-(2-((4-cyanophenethyl)carbamoyl)pyrrolidin-1-yl)-6-(trifluoromethyl)pyridin-4-yl)piperidin-4-yl)propyl)ureido)methanesulfonic acid]
Mouse TGR5 receptor
  EC50: < 100 nM
Human TGR5 receptor
  EC50: 100 to 999 nM

## N#Cc1ccc(CCNC(=O)[C@@H]2CCCN2c2cc(N3CCC(CCCC(=O)N[C@H](CCCNC(=N)N)C(=O)N[C@H](CCC(=O)O)C(=O)O)CC3)nc(C(F)(F)F)n2)cc1 [Compound 203, (R)-2-((R)-2-(4-(1-(6-((S)-2-((4-cyanophenethyl)carbamoyl)pyrrolidin-1-yl)-2-(trifluoromethyl)pyrimidin-4-yl)piperidin-4-yl)butanamido)-5-guanidino-pentanamido)pentanedioic acid]
Mouse TGR5 receptor
  EC50: < 100 nM
Human TGR5 receptor
  EC50: < 100 nM

## N#Cc1ccc(CCNC(=O)[C@@H]2CCCN2c2cc(-c3ccc(CCC(=O)O)cc3)cc(C(F)(F)F)n2)cc1 [Compound 205, (S)-3-(4-(2-(2-((4-cyanophenethyl)carbamoyl)pyrrolidin-1-yl)-6-(trifluoromethyl)pyridin-4-yl)phenyl)propanoic acid]
Mouse TGR5 receptor
  EC50: < 100 nM
Human TGR5 receptor
  EC50: < 100 nM

## N#Cc1ccc(CCNC(=O)[C@@H]2CCCN2c2cc(-c3ccc(CCC(=O)N[C@@H](CCCNC(=N)N)C(=O)O)cc3)cc(C(F)(F)F)n2)cc1 [Compound 207, (S)-2-(3-(4-(2-((S)-2-((4-cyanophenethyl)carbamoyl)pyrrolidin-1-yl)-6-(trifluoromethyl)pyridin-4-yl)phenyl)propanamido)-5-guanidino-pentanoic acid]
Mouse TGR5 receptor
  EC50: < 100 nM
Human TGR5 receptor
  EC50: 100 to 999 nM

## N#Cc1ccc(CCNC(=O)[C@@H]2CCCN2c2cc(-c3ccc(COCC(=O)O)cc3)cc(C(F)(F)F)n2)cc1 [Compound 208, (S)-2-((4-(2-(2-((4-cyanophenethyl)carbamoyl)pyrrolidin-1-yl)-6-(trifluoromethyl)pyridin-4-yl)benzyl)oxy)acetic acid]
Mouse TGR5 receptor
  EC50: < 100 nM
Human TGR5 receptor
  EC50: 100 to 999 nM
